Measurements published in PubChem BioAssay (NCI).
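1) Cells in 96-well plates. 2) Compound, 48 h, 5 concentrations. 3) Linear interpolation between surrounding doses. 4) Unreached endpoint = highest concentration. TGI is the concentration that stops growth completely.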

Assays:
Experiment in all cases: inhibition of tumour cell growth, NCI panel, 48 h
OVCAR-3 ovarian = tested on: OVCAR-3 ovarian
EKVX NSCLC = tested on: EKVX NSCLC
XF 498 CNS = tested on: XF 498 CNS
UO-31 renal = tested on: UO-31 renal
KM20L2 colon = tested on: KM20L2 colon
SF-268 CNS = tested on: SF-268 CNS
TK-10 renal = tested on: TK-10 renal
M19-MEL melanoma = tested on: M19-MEL melanoma
SK-MEL-2 melanoma = tested on: SK-MEL-2 melanoma
NCI-H522 lung = tested on: NCI-H522 lung
OVCAR-8 ovarian = tested on: OVCAR-8 ovarian
NCI-H460 lung = tested on: NCI-H460 lung
HOP-62 NSCLC = tested on: HOP-62 NSCLC
UACC-257 melanoma = tested on: UACC-257 melanoma
LXFL 529 NSCLC = tested on: LXFL 529 NSCLC
NCI-H226 lung = tested on: NCI-H226 lung
A549 NSCLC = tested on: A549 NSCLC
CCRF-CEM leukemia = tested on: CCRF-CEM leukemia
LOX IMVI melanoma = tested on: LOX IMVI melanoma
SF-295 CNS = tested on: SF-295 CNS
SW-620 colon = tested on: SW-620 colon
MOLT-4 leukemia = tested on: MOLT-4 leukemia
KM12 colon = tested on: KM12 colon
SK-MEL-28 melanoma = tested on: SK-MEL-28 melanoma
M14 melanoma = tested on: M14 melanoma
RPMI-8226 leukemia = tested on: RPMI-8226 leukemia
HOP-18 NSCLC = tested on: HOP-18 NSCLC
DMS 273 small cell lung = tested on: DMS 273 small cell lung
COLO 205 colon = tested on: COLO 205 colon
HOP-92 NSCLC = tested on: HOP-92 NSCLC
OVCAR-5 ovarian = tested on: OVCAR-5 ovarian
UACC-62 melanoma = tested on: UACC-62 melanoma
HT29 colon = tested on: HT29 colon
HCC-2998 colon = tested on: HCC-2998 colon
SNB-75 CNS = tested on: SNB-75 CNS
SNB-19 CNS = tested on: SNB-19 CNS
SN12C renal = tested on: SN12C renal
HL-60(TB) leukemia = tested on: HL-60(TB) leukemia
NCI-H23 lung = tested on: NCI-H23 lung
IGROV1 ovarian = tested on: IGROV1 ovarian
RXF 393 renal = tested on: RXF 393 renal
SR leukemia = tested on: SR leukemia
786-0 renal = tested on: 786-0 renal
U251 CNS = tested on: U251 CNS
CAKI-1 renal = tested on: CAKI-1 renal
DMS 114 small cell lung = tested on: DMS 114 small cell lung
HCT-116 colon = tested on: HCT-116 colon
MALME-3M melanoma = tested on: MALME-3M melanoma
SK-OV-3 ovarian = tested on: SK-OV-3 ovarian
OVCAR-4 ovarian = tested on: OVCAR-4 ovarian
SF-539 CNS = tested on: SF-539 CNS
SK-MEL-5 melanoma = tested on: SK-MEL-5 melanoma
HCT-15 colon = tested on: HCT-15 colon
K-562 leukemia = tested on: K-562 leukemia
A498 renal = tested on: A498 renal
ACHN renal = tested on: ACHN renal
DLD-1 colon = tested on: DLD-1 colon
SNB-78 CNS = tested on: SNB-78 CNS
RXF-631 renal = tested on: RXF-631 renal

Measured: TGI

Cc1cc(C)c2c(c1)N[S@@](=O)S2
70.8 µM: CAKI-1 renal
80.3 µM: TK-10 renal
33.5 µM: COLO 205 colon
41.1 µM: HT29 colon
67.9 µM: K-562 leukemia
65.7 µM: ACHN renal
38.2 µM: DMS 273 small cell lung
65.6 µM: MOLT-4 leukemia
61.3 µM: CCRF-CEM leukemia | OVCAR-4 ovarian
80.6 µM: SK-MEL-5 melanoma
59.2 µM: DLD-1 colon
31.9 µM: NCI-H522 lung
16.5 µM: SW-620 colon
58.1 µM: MALME-3M melanoma
37.9 µM: UACC-62 melanoma
92.1 µM: HOP-18 NSCLC
82.9 µM: SK-MEL-2 melanoma
50.1 µM: XF 498 CNS
28.9 µM: 786-0 renal
90.6 µM: SK-OV-3 ovarian
30.7 µM: LOX IMVI melanoma
83.7 µM: SR leukemia
34.5 µM: SF-268 CNS
50.5 µM: SF-539 CNS
61.2 µM: HL-60(TB) leukemia
38.7 µM: DMS 114 small cell lung
69.6 µM: KM12 colon
38.5 µM: NCI-H226 lung
46.7 µM: M19-MEL melanoma
36.7 µM: SN12C renal
33 µM: HCT-15 colon
39 µM: OVCAR-3 ovarian
31.1 µM: U251 CNS
29.4 µM: LXFL 529 NSCLC
35.7 µM: UACC-257 melanoma
95.1 µM: SK-MEL-28 melanoma
32.8 µM: HCT-116 colon
81.9 µM: OVCAR-5 ovarian
46.5 µM: NCI-H460 lung
39.4 µM: UO-31 renal
26.3 µM: RXF 393 renal
33.2 µM: OVCAR-8 ovarian | M14 melanoma
88.5 µM: RPMI-8226 leukemia
not listed: RXF-631 renal
> 100 µM: all other assays above

C[C@@H]1OC2(O)[C@H]3CCCN3S(=O)(=O)CCN2C1=O (stereo not given in full)
not listed: XF 498 CNS | SK-MEL-2 melanoma | DMS 273 small cell lung | DMS 114 small cell lung
> 100 µM: all other assays above

O=C1C2c3[nH]c4ccccc4c3C3CCCCCC3C2C(=O)N1c1ccccc1 (stereo not given)
> 67.5 µM: A549 NSCLC
99.8 µM: SF-268 CNS
> 49.9 µM: LOX IMVI melanoma
> 53.9 µM: SR leukemia
> 57.1 µM: A498 renal
23.1 µM: CCRF-CEM leukemia
> 74.1 µM: SNB-19 CNS
> 24.5 µM: OVCAR-4 ovarian
> 64.3 µM: NCI-H226 lung
35.7 µM: OVCAR-3 ovarian
47.4 µM: XF 498 CNS
> 82.9 µM: NCI-H23 lung
> 77.4 µM: NCI-H460 lung
> 49.3 µM: M14 melanoma
37.7 µM: RXF 393 renal
47.7 µM: MOLT-4 leukemia
> 45.6 µM: U251 CNS
41.1 µM: MALME-3M melanoma
62.7 µM: HCT-116 colon
8.41 µM: SNB-75 CNS
> 91.1 µM: ACHN renal
34 µM: OVCAR-8 ovarian
> 65.5 µM: SF-295 CNS
> 70.3 µM: HL-60(TB) leukemia
97.7 µM: SK-MEL-28 melanoma
34.1 µM: SK-OV-3 ovarian
> 60.4 µM: HOP-18 NSCLC
72 µM: IGROV1 ovarian
> 36.5 µM: SN12C renal
74.7 µM: HOP-92 NSCLC
67.2 µM: SK-MEL-2 melanoma
41.7 µM: HOP-62 NSCLC
84.6 µM: UACC-257 melanoma
99.4 µM: UO-31 renal
> 52 µM: SF-539 CNS
70.7 µM: SNB-78 CNS
not listed: RXF-631 renal
> 100 µM: all other assays above

C/C(=N/NC(=O)C[n+]1ccccc1)C(CN(CC(C)C)CC(C)C)C(=O)Nc1ccc(C)cc1C (stereo not given)
82.8 µM: UO-31 renal
92.9 µM: A498 renal
not listed: OVCAR-3 ovarian | XF 498 CNS | LXFL 529 NSCLC | NCI-H226 lung | LOX IMVI melanoma | SF-295 CNS | KM12 colon | HOP-18 NSCLC | DMS 273 small cell lung | SNB-75 CNS | U251 CNS | CAKI-1 renal | HCT-15 colon | SNB-78 CNS
> 100 µM: all other assays above

CCN(CC)CCC1(C2CCCCC2)CCC(=O)NC1=O (stereo not given)
not listed: HOP-18 NSCLC | HOP-92 NSCLC | HL-60(TB) leukemia | SR leukemia
> 100 µM: all other assays above

Cc1nc(-n2nc(-c3ccccc3)cc2-c2ccccc2)sc1C(=O)/C=C/c1ccc(Cl)c(Cl)c1
52.5 µM: MOLT-4 leukemia
54.2 µM: OVCAR-3 ovarian
23.9 µM: UO-31 renal
40.5 µM: M14 melanoma
81.3 µM: OVCAR-4 ovarian
57.3 µM: SW-620 colon
78.7 µM: CAKI-1 renal
69.7 µM: CCRF-CEM leukemia
31.3 µM: OVCAR-8 ovarian
23.8 µM: U251 CNS
19.9 µM: UACC-62 melanoma
63.7 µM: K-562 leukemia
70.3 µM: KM20L2 colon
21.6 µM: NCI-H522 lung
87.6 µM: NCI-H226 lung
27.5 µM: LOX IMVI melanoma
36.7 µM: HL-60(TB) leukemia
44.5 µM: SF-539 CNS
42.1 µM: SNB-19 CNS
66.2 µM: OVCAR-5 ovarian
44.3 µM: SN12C renal
76.8 µM: SR leukemia
20.8 µM: KM12 colon
30 µM: IGROV1 ovarian
73.6 µM: SNB-78 CNS
30.8 µM: XF 498 CNS
48.2 µM: DLD-1 colon
35.7 µM: SF-295 CNS
32 µM: LXFL 529 NSCLC
33.5 µM: 786-0 renal
39.9 µM: HCT-15 colon
not listed: RPMI-8226 leukemia | HOP-18 NSCLC | HOP-92 NSCLC | HT29 colon | SNB-75 CNS | SK-MEL-5 melanoma | A498 renal
> 100 µM: all other assays above

COC(=O)C1C(=O)O[C@@H](c2ccc(OC)c(OC)c2OC)C1C(=O)OC (mixture of isomers)
not listed: SK-MEL-2 melanoma | HOP-18 NSCLC
> 100 µM: all other assays above
